Assay results as given in patent US20060100103A1, “Toning agents for use in thermographic recording materials” (AGFA-GEVAERT, priority 2004, published 2006).

Assay: Solubility in methyl ethyl ketone
Assay type: physicochemical

**Q.** For CN1C(=O)NS(=O)(=O)c2ccccc21 [TA01], which “Solubility in methyl ethyl ketone” value is on record?
**A.** >2 wt %

**Q.** With CC1=CC(=O)NS(=O)(=O)O1 [TA02] as the molecule, how does the “Solubility in methyl ethyl ketone” value read?
**A.** >10 wt %

**Q.** For O=C1CS(=O)(=O)OC2=C1CCCC2 [TA03], which “Solubility in methyl ethyl ketone” value is on record?
**A.** 5.5 wt %

**Q.** Which “Solubility in methyl ethyl ketone” value does the source give for O=C1NS(=O)(=O)Oc2ccccc21 [TA04] here?
**A.** >10 wt %
